Source: ChEMBL document CHEMBL5465560, “Selectivity Literature for EUbOPEN Chemogenomic Library” (2024)
Numbering of substitutions follows the chain as printed.

Columns and labels:
Conditions in all cases: at 10 µM
[1] = tested on: Receptor-type tyrosine-protein kinase FLT3 (Homo sapiens), P36888 [UNDEFINED MUTATION]; experiment: (§1) Selectivity interaction (KinomeScan (DiscoverX)) EUB0000607a FLT3
[2] = tested on: T1, Receptor-type tyrosine-protein kinase FLT3 (Homo sapiens), P36888 [D835H]; experiment: as §1
T1 sequence (whole entry): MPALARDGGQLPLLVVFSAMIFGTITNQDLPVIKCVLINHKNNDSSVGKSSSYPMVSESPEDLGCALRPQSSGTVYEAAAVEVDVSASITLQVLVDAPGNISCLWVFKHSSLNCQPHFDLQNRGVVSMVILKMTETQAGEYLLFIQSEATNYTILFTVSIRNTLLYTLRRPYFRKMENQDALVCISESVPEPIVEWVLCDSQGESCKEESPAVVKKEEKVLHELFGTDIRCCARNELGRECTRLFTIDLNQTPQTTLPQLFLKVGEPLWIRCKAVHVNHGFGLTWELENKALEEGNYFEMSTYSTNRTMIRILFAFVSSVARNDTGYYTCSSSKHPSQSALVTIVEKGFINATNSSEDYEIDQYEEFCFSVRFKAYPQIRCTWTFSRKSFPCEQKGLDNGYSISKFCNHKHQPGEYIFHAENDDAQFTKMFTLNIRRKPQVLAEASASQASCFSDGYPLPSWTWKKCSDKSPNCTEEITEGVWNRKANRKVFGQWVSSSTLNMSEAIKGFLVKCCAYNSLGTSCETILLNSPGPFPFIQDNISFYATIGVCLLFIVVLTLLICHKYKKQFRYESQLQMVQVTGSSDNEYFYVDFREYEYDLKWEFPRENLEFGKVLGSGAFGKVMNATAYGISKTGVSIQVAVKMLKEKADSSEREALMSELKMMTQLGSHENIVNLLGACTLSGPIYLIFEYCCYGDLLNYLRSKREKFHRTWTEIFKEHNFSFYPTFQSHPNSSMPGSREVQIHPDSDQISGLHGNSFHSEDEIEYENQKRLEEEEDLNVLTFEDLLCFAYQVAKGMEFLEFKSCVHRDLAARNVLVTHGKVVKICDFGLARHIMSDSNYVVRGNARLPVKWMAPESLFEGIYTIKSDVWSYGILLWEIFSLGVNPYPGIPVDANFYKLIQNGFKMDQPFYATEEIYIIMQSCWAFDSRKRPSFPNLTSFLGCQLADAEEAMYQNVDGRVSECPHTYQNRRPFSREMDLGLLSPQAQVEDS

[3] = biological target: Receptor-type tyrosine-protein kinase FLT3 (Homo sapiens) (UniProt P36888); experiment: as §1
[4] = tested on: T2, Receptor-type tyrosine-protein kinase FLT3 (Homo sapiens), P36888 [K663Q]; experiment: as §1
T2 sequence (whole entry): T1 sequence (whole entry) with K663Q, H835D

[5] = tested on: T3, Receptor-type tyrosine-protein kinase FLT3 (Homo sapiens), P36888 [D835Y]; experiment: as §1
T3 sequence (whole entry): T1 sequence (whole entry) with H835Y

Q: Which results are given for `CNC(=O)Nc1ccc(-c2nc(N3CC4CCC(C3)O4)c3cnn(C4CCC5(CC4)OCCO5)c3n2)cc1`?
A: % of control [1]: 100%; % of control [2]: 82%; % of control [3]: 75%; % of control [4]: 69%; % of control [5]: 99%
